Assay results reported in PubChem BioAssay (NCI).
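48-hour exposure; five concentrations; linearly interpolated endpoints. TGI is the concentration that stops growth completely.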

These molecules were tested on SR leukemia (assay: NCI-60 cell line screen, 48 h).

SMILES	TGI [µM]
COc1c2occc2c(N)c2ccc(=O)oc12	> 100
CC(C)N1CCN(c2ccc(OCC3COC(Cn4cncn4)(c4ccc(Cl)cc4Cl)O3)cc2)CC1 (configuration not stated)	12.1
CCCC(=O)OC[n+]1ccc2c(C)c3[nH]c4ccccc4c3c(C)c2c1	17.5

The molecules below were run on SW-620 colon (assay: NCI-60 cell line screen, 48 h).

SMILES	TGI [µM]
C=CCn1c(=O)ccn(/C(=C/C(=O)OCC)C(=O)OCC)c1=O	6.57
CC(C)(C)OC(=O)NC(CSSCC(NC(=O)OC(C)(C)C)C(=O)O)C(=O)O (configuration not stated)	> 100
COc1c(C)c(OCC=C(C)C)cc(CO)c1CO	> 100
COc1c2occc2c(N)c2ccc(=O)oc12	> 100
CC(C)N1CCN(c2ccc(OCC3COC(Cn4cncn4)(c4ccc(Cl)cc4Cl)O3)cc2)CC1 (configuration not stated)	37.4

What follows are molecules tested on T-47D breast (assay: NCI-60 cell line screen, 48 h).

SMILES	TGI [µM]
C=CCn1c(=O)ccn(/C(=C/C(=O)OCC)C(=O)OCC)c1=O	19
CC(C)(C)OC(=O)NC(CSSCC(NC(=O)OC(C)(C)C)C(=O)O)C(=O)O (configuration not stated)	> 100
COc1c(C)c(OCC=C(C)C)cc(CO)c1CO	> 100
COc1c2occc2c(N)c2ccc(=O)oc12	> 100
CC(C)N1CCN(c2ccc(OCC3COC(Cn4cncn4)(c4ccc(Cl)cc4Cl)O3)cc2)CC1 (configuration not stated)	47.8

Each molecule was assayed on TK-10 renal (assay: NCI-60 cell line screen, 48 h).

SMILES	TGI [µM]
C=CCn1c(=O)ccn(/C(=C/C(=O)OCC)C(=O)OCC)c1=O	24.1
CC(C)(C)OC(=O)NC(CSSCC(NC(=O)OC(C)(C)C)C(=O)O)C(=O)O (configuration not stated)	> 100
COc1c(C)c(OCC=C(C)C)cc(CO)c1CO	> 100
COc1c2occc2c(N)c2ccc(=O)oc12	> 100
CC(C)N1CCN(c2ccc(OCC3COC(Cn4cncn4)(c4ccc(Cl)cc4Cl)O3)cc2)CC1 (configuration not stated)	26.1
CCCC(=O)OC[n+]1ccc2c(C)c3[nH]c4ccccc4c3c(C)c2c1	5.5

What follows are molecules tested on U251 CNS (assay: NCI-60 cell line screen, 48 h).

SMILES	TGI [µM]
C=CCn1c(=O)ccn(/C(=C/C(=O)OCC)C(=O)OCC)c1=O	27.6
[N-]=[N+]=NC1(c2ccccc2)C(=O)c2cccc3c2N(CCC3)C1=O (configuration not stated)	> 100
CCc1c(O)c(O)c(C(C)=O)c2c(O)c(-c3c(C)cc4c(CC)c(O)c(O)c(C(C)=O)c4c3O)c(C)cc12	21.4
CC(C)(C)OC(=O)NC(CSSCC(NC(=O)OC(C)(C)C)C(=O)O)C(=O)O (configuration not stated)	> 100
COc1c(C)c(OCC=C(C)C)cc(CO)c1CO	> 100
COc1c2occc2c(N)c2ccc(=O)oc12	> 100
CC(C)N1CCN(c2ccc(OCC3COC(Cn4cncn4)(c4ccc(Cl)cc4Cl)O3)cc2)CC1 (configuration not stated)	26.7

These molecules were tested on UACC-257 melanoma (assay: NCI-60 cell line screen, 48 h).

SMILES	TGI [µM]
C=CCn1c(=O)ccn(/C(=C/C(=O)OCC)C(=O)OCC)c1=O	28.7
[N-]=[N+]=NC1(c2ccccc2)C(=O)c2cccc3c2N(CCC3)C1=O (configuration not stated)	82.7
CCc1c(O)c(O)c(C(C)=O)c2c(O)c(-c3c(C)cc4c(CC)c(O)c(O)c(C(C)=O)c4c3O)c(C)cc12	24.3
CC(C)(C)OC(=O)NC(CSSCC(NC(=O)OC(C)(C)C)C(=O)O)C(=O)O (configuration not stated)	> 100
COc1c(C)c(OCC=C(C)C)cc(CO)c1CO	> 100
COc1c2occc2c(N)c2ccc(=O)oc12	> 100
CC(C)N1CCN(c2ccc(OCC3COC(Cn4cncn4)(c4ccc(Cl)cc4Cl)O3)cc2)CC1 (configuration not stated)	3.77

The molecules below were run on UACC-62 melanoma (assay: NCI-60 cell line screen, 48 h).

SMILES	TGI [µM]
C=CCn1c(=O)ccn(/C(=C/C(=O)OCC)C(=O)OCC)c1=O	29.7
[N-]=[N+]=NC1(c2ccccc2)C(=O)c2cccc3c2N(CCC3)C1=O (configuration not stated)	> 100
CCc1c(O)c(O)c(C(C)=O)c2c(O)c(-c3c(C)cc4c(CC)c(O)c(O)c(C(C)=O)c4c3O)c(C)cc12	24.7
CC(C)(C)OC(=O)NC(CSSCC(NC(=O)OC(C)(C)C)C(=O)O)C(=O)O (configuration not stated)	> 100
COc1c(C)c(OCC=C(C)C)cc(CO)c1CO	> 100
COc1c2occc2c(N)c2ccc(=O)oc12	> 100
CC(C)N1CCN(c2ccc(OCC3COC(Cn4cncn4)(c4ccc(Cl)cc4Cl)O3)cc2)CC1 (configuration not stated)	5.66

The molecules below were run on UO-31 renal (assay: NCI-60 cell line screen, 48 h).

SMILES	TGI [µM]
C=CCn1c(=O)ccn(/C(=C/C(=O)OCC)C(=O)OCC)c1=O	28.6
[N-]=[N+]=NC1(c2ccccc2)C(=O)c2cccc3c2N(CCC3)C1=O (configuration not stated)	74.3
CCc1c(O)c(O)c(C(C)=O)c2c(O)c(-c3c(C)cc4c(CC)c(O)c(O)c(C(C)=O)c4c3O)c(C)cc12	22.3
CC(C)(C)OC(=O)NC(CSSCC(NC(=O)OC(C)(C)C)C(=O)O)C(=O)O (configuration not stated)	> 100
COc1c2occc2c(N)c2ccc(=O)oc12	> 100
CC(C)N1CCN(c2ccc(OCC3COC(Cn4cncn4)(c4ccc(Cl)cc4Cl)O3)cc2)CC1 (configuration not stated)	> 42.5
CCCC(=O)OC[n+]1ccc2c(C)c3[nH]c4ccccc4c3c(C)c2c1	5.59
